Measured values reported in patent US20250161307A1, “PYRAZOLOPYRIMIDINES AS MODULATORS OF SPERMINE OXIDASE” (Janssen Pharmaceutica NV, priority 2022, published 2025).

Assays:
SMOX = SMOX (Homo sapiens (Human), UniProt Q9NWM0); experiment: Human SMOX assay (HyPerBlu chemiluminescent detection of hydrogen peroxide); assay type: biochemical; conditions: 2.5 nM full length hSMOX, spermine substrate, 1 h at room temperature, luminescence read; read-out: SMOx_IC50
Protocol: (§1) The direct detection of hydrogen peroxide produced from the enzymatic reaction of hSMOX or hPAOX in a biochemical assay format was measured using HyPerBlu (Lumigen, Southfield, MI), a small molecule boronate probe that reacts with hydrogen peroxide to generate a chemiluminescent signal. Inhibition of hSMOX or hPAOX enzyme results in a decrease in luminescence.
Test compounds (75 nL) dissolved in DMSO were added to a 384-well white assay plate (Greiner Bio-one, catalog #784075) using an ECHO Acoustic Dispenser (Labcyte). Each compound was serially diluted 3-fold in DMSO to prepare an 11-point dose response curve (columns 1-22). Column 23 and 24 contained 75 nL of 2 mM chlorhexidine and DMSO, respectively, to represent the 100% inhibited versus the neutral control reactions.
Subsequently, 3 μL/well of the substrate solution prepared in assay buffer (10 mM Hepes, pH 7.4, 150 mM NaCl, 1 mM EGTA, 0.01% Pluronic F-127, 0.05% ovalbumin) was dispensed into the assay plate followed by 3 μL/well of full length hSMOX enzyme with an N-terminal His tag from E. coli prepared in assay buffer to initiate the reactions. After a 1 h incubation at room temperature, 6 μL/well of HyPerBlu was added. After a 30 min incubation, the hydrogen peroxide product generated from the hSMOX reactions was measured using an endpoint luminescence read on the PHERAStar FS/FSX microplate reader (BMG LABTECH).
The final assay conditions included 10 mM Hepes, pH 7.4, 150 mM NaCl, 1 mM EGTA, 0.01% Pluronic F-127, 0.05% ovalbumin, 2.5 nM hSMOX, 30 µM spermine, and 1.25% DMSO.
Dose-response curves were fit and compound IC50 values were determined using Genedata Screener (Genedata AG).

hPAOX = hPAOX (Homo sapiens (Human), UniProt Q6QHF9); experiment: Human PAOX assay (HyPerBlu chemiluminescent detection of hydrogen peroxide); assay type: biochemical; conditions: 60 pM recombinant PAOX, 20 μM N-acetylspermine substrate
Protocol: as §1
The hPAOX assay was run and the data analyzed similarly to the hSMOX assay described above, except the reactions contained 60 pM recombinant PAOX with an N-terminal His tag expressed from sf9 insect cells and used 20 μM N-acetylspermine as the substrate.

Chain of hPAOX (Q6QHF9 whole entry): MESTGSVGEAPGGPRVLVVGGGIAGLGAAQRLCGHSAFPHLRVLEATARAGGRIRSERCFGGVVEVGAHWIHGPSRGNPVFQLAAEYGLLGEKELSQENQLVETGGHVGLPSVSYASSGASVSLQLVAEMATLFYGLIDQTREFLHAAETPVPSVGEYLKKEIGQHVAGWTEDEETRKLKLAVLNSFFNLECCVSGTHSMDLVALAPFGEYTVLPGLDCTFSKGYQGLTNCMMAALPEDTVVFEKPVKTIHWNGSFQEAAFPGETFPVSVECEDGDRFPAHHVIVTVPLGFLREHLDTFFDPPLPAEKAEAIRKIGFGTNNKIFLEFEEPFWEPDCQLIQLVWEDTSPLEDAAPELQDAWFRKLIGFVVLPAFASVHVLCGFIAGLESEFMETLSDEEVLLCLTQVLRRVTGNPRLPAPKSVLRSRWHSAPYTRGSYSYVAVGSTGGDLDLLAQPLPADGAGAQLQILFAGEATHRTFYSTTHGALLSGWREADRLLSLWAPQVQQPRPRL
Chain of SMOX (Q9NWM0 whole entry): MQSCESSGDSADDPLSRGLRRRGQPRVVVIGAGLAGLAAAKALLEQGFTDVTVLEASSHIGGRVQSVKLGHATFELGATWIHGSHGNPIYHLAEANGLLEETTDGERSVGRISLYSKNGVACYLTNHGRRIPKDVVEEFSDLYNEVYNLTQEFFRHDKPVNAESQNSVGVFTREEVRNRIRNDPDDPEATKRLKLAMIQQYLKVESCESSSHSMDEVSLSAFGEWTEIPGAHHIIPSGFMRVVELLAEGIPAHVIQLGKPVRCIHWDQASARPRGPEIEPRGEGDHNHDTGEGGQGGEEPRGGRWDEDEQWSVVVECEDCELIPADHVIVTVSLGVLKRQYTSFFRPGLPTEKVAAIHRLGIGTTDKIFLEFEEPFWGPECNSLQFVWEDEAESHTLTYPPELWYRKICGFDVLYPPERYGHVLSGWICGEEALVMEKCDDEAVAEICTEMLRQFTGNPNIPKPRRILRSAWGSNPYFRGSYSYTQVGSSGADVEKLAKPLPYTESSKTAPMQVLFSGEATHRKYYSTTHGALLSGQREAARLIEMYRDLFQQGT

Row | SMILES | IC50 (SMOX) | IC50 (hPAOX)
1 | O=C(NC1CCN(Cc2ccccc2)C1)c1cc2nc(-c3ccccc3)cc(-c3ccccc3)n2n1 (centres unmarked) [Example 16, N-(1-Benzylpyrrolidin-3-yl)-5,7-diphenylpyrazolo[1,5-a]pyrimidine-2-carboxamide] | 412 nM | 4360 nM
2 | CN1CCC(NC(=O)c2cc3nc(-c4ccccc4)cc(-c4ccccc4)n3n2)CC1 [Example 17, N-(1-Methylpiperidin-4-yl)-5,7-diphenylpyrazolo[1,5-a]pyrimidine-2-carboxamide] | 606 nM | 10400 nM
3 | O=C(NCC1CCN(C2CC2)C1)c1cc2nc(-c3ccccc3)cc(-c3ccccc3)n2n1 (centres unmarked) [Example 22, N-((1-Cyclopropylpyrrolidin-3-yl)methyl)-5,7-diphenylpyrazolo[1,5-a]pyrimidine-2-carboxamide] | 691 nM | 535 nM
4 | CN1CCC(CNC(=O)c2cc3nc(-c4ccccc4)cc(-c4ccccc4)n3n2)CC1 [Example 24, N-((1-Methylpiperidin-4-yl)methyl)-5,7-diphenylpyrazolo[1,5-a]pyrimidine-2-carboxamide] | 907 nM | 1940 nM
5 | O=C(NCCCNc1ccccn1)c1cc2nc(-c3ccccc3)cc(-c3ccccc3)n2n1 [Example 26, 5,7-Diphenyl-N-(3-(pyridin-2-ylamino)propyl)pyrazolo[1,5-a]pyrimidine-2-carboxamide] | 324 nM | 22 nM
6 | CN1CC(CNC(=O)c2cc3nc(-c4ccccc4)cc(-c4ccccc4)n3n2)C1 [Example 29, N-((1-Methylazetidin-3-yl)methyl)-5,7-diphenylpyrazolo[1,5-a]pyrimidine-2-carboxamide] | 480 nM | 1760 nM
7 | O=C(NCCCc1cccnc1)c1cc2nc(-c3ccccc3)cc(-c3ccccc3)n2n1 [Example 31, 5,7-Diphenyl-N-(3-(pyridin-3-yl)propyl)pyrazolo[1,5-a]pyrimidine-2-carboxamide] | 900 nM | 2100 nM
8 | CN(CCCNC(=O)c1cc2nc(-c3ccccc3)cc(-c3ccccc3)n2n1)c1ccccn1 [Example 32, N-(3-(Methyl(pyridin-2-yl)amino)propyl)-5,7-diphenylpyrazolo[1,5-a]pyrimidine-2-carboxamide] | 850 nM | 6220 nM
9 | O=C(NCCCN1CCC1)c1cc2nc(-c3ccccc3)cc(-c3ccccc3)n2n1 [Example 35, N-(3-(Azetidin-1-yl)propyl)-5,7-diphenylpyrazolo[1,5-a]pyrimidine-2-carboxamide] | 523 nM | 362 nM
10 | O=C(NCCN1CCC1)c1cc2nc(-c3ccccc3)cc(-c3ccccc3)n2n1 [Example 36, N-(2-(Azetidin-1-yl)ethyl)-5,7-diphenylpyrazolo[1,5-a]pyrimidine-2-carboxamide] | 360 nM | 995 nM
11 | O=C(NC1CCCC(n2ccnc2)C1)c1cc2nc(-c3ccccc3)cc(-c3ccccc3)n2n1 (centres unmarked) [Example 37, N-(3-(1H-Imidazol-1-yl)cyclohexyl)-5,7-diphenylpyrazolo[1,5-a]pyrimidine-2-carboxamide] | 878 nM | 12600 nM
12 | O=C(NCCc1ccncc1)c1cc2nc(-c3ccccc3)cc(-c3ccccc3)n2n1 [Example 38, 5,7-Diphenyl-N-(2-(pyridin-4-yl)ethyl)pyrazolo[1,5-a]pyrimidine-2-carboxamide] | 4580 nM | 1140 nM
13 | O=C(NCCc1ccccn1)c1cc2nc(-c3ccccc3)cc(-c3ccccc3)n2n1 [Example 39, 5,7-Diphenyl-N-(2-(pyridin-2-yl)ethyl)pyrazolo[1,5-a]pyrimidine-2-carboxamide] | 2750 nM | 1420 nM
14 | O=C(NCCc1ccccc1)c1cc2nc(-c3ccccc3)cc(-c3ccccc3)n2n1 [Example 40, N-Phenethyl-5,7-diphenylpyrazolo[1,5-a]pyrimidine-2-carboxamide] | > 31200 nM | > 31200 nM
15 | O=C(NC1CCC1)c1cc2nc(-c3ccccc3)cc(-c3ccccc3)n2n1 [Example 41, N-Cyclobutyl-5,7-diphenylpyrazolo[1,5-a]pyrimidine-2-carboxamide] | > 31200 nM | > 31200 nM
16 | CN1CC(C)(NC(=O)c2cc3nc(-c4ccccc4)cc(-c4ccccc4)n3n2)C1 [Example 42, N-(1,3-Dimethylazetidin-3-yl)-5,7-diphenylpyrazolo[1,5-a]pyrimidine-2-carboxamide] | 2210 nM | 6780 nM
17 | CN(C)CCN(C)C(=O)c1cc2nc(-c3ccccc3)cc(-c3ccccc3)n2n1 [Example 44, N-(2-(Dimethylamino)ethyl)-N-methyl-5,7-diphenylpyrazolo[1,5-a]pyrimidine-2-carboxamide] | 7340 nM | > 31200 nM
18 | CN1CC(N(C)C(=O)c2cc3nc(-c4ccccc4)cc(-c4ccccc4)n3n2)C1 [Example 45, N-Methyl-N-(1-methylazetidin-3-yl)-5,7-diphenylpyrazolo[1,5-a]pyrimidine-2-carboxamide] | 1820 nM | 11600 nM
19 | CN1CCC(C)(CNC(=O)c2nn3c(-c4ccccc4)cc(-c4ccccc4)nc3c2I)C1 (centres unmarked) [Example 48, N-((1,3-Dimethylpyrrolidin-3-yl)methyl)-3-iodo-5,7-diphenylpyrazolo[1,5-a]pyrimidine-2-carboxamide] | 698 nM | 7590 nM
20 | Cc1c(C(=O)NC2CCN(C)C2)nn2c(-c3ccccc3)cc(-c3ccccc3)nc12 (centres unmarked) [Example 51, 3-Methyl-N-(1-methylpyrrolidin-3-yl)-5,7-diphenylpyrazolo[1,5-a]pyrimidine-2-carboxamide] | 821 nM | 7710 nM

Stronger by IC50 (SMOX), values ahead:

Row | IC50 (SMOX) | IC50 (hPAOX) | SMILES
21 | 314 nM | > 31200 nM | CN(C)CC(C)(C)CNC(=O)c1cc2nc(-c3ccccc3)cc(-c3ccccc3)n2n1 [Example 33, N-(3-(Dimethylamino)-2,2-dimethylpropyl)-5,7-diphenylpyrazolo[1,5-a]pyrimidine-2-carboxamide]
22 | 297 nM | 129 nM | O=C(NCCCCN1CCCC1)c1cc2nc(-c3ccccc3)cc(-c3ccccc3)n2n1 [Example 30, 5,7-Diphenyl-N-(4-(pyrrolidin-1-yl)butyl)pyrazolo[1,5-a]pyrimidine-2-carboxamide]
23 | 273 nM | 13300 nM | CN1CC(NC(=O)c2nn3c(-c4ccccc4)cc(-c4ccccc4)nc3c2C#N)C1 [Example 53, 3-Cyano-N-(1-methylazetidin-3-yl)-5,7-diphenylpyrazolo[1,5-a]pyrimidine-2-carboxamide]
24 | 262 nM | 11 nM | O=C(NCCc1c[nH]cn1)c1cc2nc(-c3ccccc3)cc(-c3ccccc3)n2n1 [Example 34, N-(2-(1H-Imidazol-4-yl)ethyl)-5,7-diphenylpyrazolo[1,5-a]pyrimidine-2-carboxamide]
25 | 253 nM | 35 nM | O=C(NCCc1ncc[nH]1)c1cc2nc(-c3ccccc3)cc(-c3ccccc3)n2n1 [Example 25, N-(2-(1H-Imidazol-2-yl)ethyl)-5,7-diphenylpyrazolo[1,5-a]pyrimidine-2-carboxamide]
26 | 215 nM | 1920 nM | CN1CC(NC(=O)c2nn3c(-c4ccccc4)cc(-c4ccccc4)nc3c2F)C1 [Example 52, 3-Fluoro-N-(1-methylazetidin-3-yl)-5,7-diphenylpyrazolo[1,5-a]pyrimidine-2-carboxamide]
27 | 156 nM | 85 nM | O=C(NCCNc1ccccn1)c1cc2nc(-c3ccccc3)cc(-c3ccccc3)n2n1 [Example 28, 5,7-Diphenyl-N-(2-(pyridin-2-ylamino)ethyl)pyrazolo[1,5-a]pyrimidine-2-carboxamide]
28 | 125 nM | 20600 nM | CN1CCC(NC(=O)c2nn3c(-c4ccccc4)cc(-c4ccccc4)nc3c2I)C1 (centres unmarked) [Example 47, 3-Iodo-N-(1-methylpyrrolidin-3-yl)-5,7-diphenylpyrazolo[1,5-a]pyrimidine-2-carboxamide]
29 | 110 nM | 3130 nM | Cc1c(C(=O)NC2CN(C)C2)nn2c(-c3ccccc3)cc(-c3ccccc3)nc12 [Example 50, 3-Methyl-N-(1-methylazetidin-3-yl)-5,7-diphenylpyrazolo[1,5-a]pyrimidine-2-carboxamide]
30 | 108 nM | 9060 nM | CN1CC(NC(=O)c2nn3c(-c4ccccc4)cc(-c4ccccc4)nc3c2Cl)C1 [Example 49, 3-Chloro-N-(1-methylazetidin-3-yl)-5,7-diphenylpyrazolo[1,5-a]pyrimidine-2-carboxamide]
31 | 33 nM | 5410 nM | CN1CC(NC(=O)c2nn3c(-c4ccccc4)cc(-c4ccccc4)nc3c2I)C1 [Example 46, 3-Iodo-N-(1-methylazetidin-3-yl)-5,7-diphenylpyrazolo[1,5-a]pyrimidine-2-carboxamide]
